These results are taken from patent US11229628B2, “TRPA1 and TRPV4 inhibitors and methods of using the same for organ-specific inflammation and itch” (Duke University, priority 2015, dated 2022).

In one assay the test system is BL6 mice. Nature of the assay: Formalin-evoked nocifensive behavior, whiskerpad injection pain model in mice. Format: in vivo, mouse. The settings on record: for formalin-evoked nocifensive behavior at the 45-min time-point / formalin-evoked nocifensive behavior, time course: 0.5 mM/10 μL whiskerpad; for formalin-evoked nocifensive behavior, quantitation (in particular second phase): pre-injected into whiskerpad at 0.5 mM/10 μL, 15 min before formalin. Here is the method:
Compounds were tested for their effect in reducing pain using an in vivo pain model in mice. For mouse formalin-evoked irritant behavior measurements, mice were well-fed, well-rested, and tested at the same time of day, at the same time-point of their circadian rhythm. They were allowed to acclimate to a plexiglas chamber for at least 30 min before testing, and received 10 μL subcutaneous injection of 4% of formalin (diluted from an aqueous solution of commercial 37% formaldehyde with normal saline (NS)) through a 30-gauge needle into the right whiskerpad, as further detailed in Luccarini et al. (J. Pain, 2006, 7, 908-914). Normal saline was used as control injection. After injection, mice were immediately placed back into the chamber and the rubbing behavior was recorded by a private consumer-type video-camera for a 45 min observation period. The recording time was divided into 9 blocks of 5 min, and a nociceptive score was determined per block by measuring the time that the animals spent rubbing the injected area predominantly with the ipsilateral fore-paw and rarely with hind-paw. This rubbing behavior with fore-paw is evoked by pain, which is distinct from itch behavior. Behavioral analysis was conducted by observers blinded to treatment.
To investigate the effects of the specific compounds GSK205, 16-8, and 16-8/18hy on formalin-induced nociceptive behavior, mice received a single subcutaneous injection of the compounds into the whiskerpad (10 μL, dissolved in 4% DMSO) 15 min before formalin injection. Control animals received the same volume of NS, 4% DMSO.
Note the biphasic response and “clean” controls. […] This concentration had no effect on residual nocifensive behavior in Trpv4−/− mice. […] Also note that none of the compounds influenced the first phase, which was caused by the direct irritation that formalin causes on peripheral whisker-pad nerve endings.

The next assay addresses T1, human TRPA1 (Homo sapiens, UniProt O75762).
T1 construct: expressed in transfected cells; host or cells: N2a cells
The experiment in a line: Ca2+ transient in N2a cells transfected with human TRPA1, evoked by AITC. Format: cell-based. Particulars: for inhibitory activity against human TRPA1: 5 μM compound. The procedure:
Compounds were tested for their effect on TRPA1. N2a permanent cells were transfected with human TRPA1 cDNA, using a pcDNA3.1 expression plasmid. They were co-transfected with eGFP-expressing plasmid, or, for control, with eGFP plasmid only.
Cells were then pre-exposed to 5 μM of compounds 16-8 and 16-8/18hy for 10 min.
Averaged Ca2+ signal is shown from >75 cells. The resulting Ca2+ transient evoked by 60 μM AITC was reduced by >80% upon administration of compound 16-8 or 16-8/18hy at 5 μM, indicating appreciable TRPA1-inhibitory effects of both compounds.

For a further assay, the target named is T2, human TRPV3 (Homo sapiens, UniProt Q8NET8).
T2 construct: expressed in transfected cells; host or cells: N2a cells
T2 sequence (Q8NET8 1-790): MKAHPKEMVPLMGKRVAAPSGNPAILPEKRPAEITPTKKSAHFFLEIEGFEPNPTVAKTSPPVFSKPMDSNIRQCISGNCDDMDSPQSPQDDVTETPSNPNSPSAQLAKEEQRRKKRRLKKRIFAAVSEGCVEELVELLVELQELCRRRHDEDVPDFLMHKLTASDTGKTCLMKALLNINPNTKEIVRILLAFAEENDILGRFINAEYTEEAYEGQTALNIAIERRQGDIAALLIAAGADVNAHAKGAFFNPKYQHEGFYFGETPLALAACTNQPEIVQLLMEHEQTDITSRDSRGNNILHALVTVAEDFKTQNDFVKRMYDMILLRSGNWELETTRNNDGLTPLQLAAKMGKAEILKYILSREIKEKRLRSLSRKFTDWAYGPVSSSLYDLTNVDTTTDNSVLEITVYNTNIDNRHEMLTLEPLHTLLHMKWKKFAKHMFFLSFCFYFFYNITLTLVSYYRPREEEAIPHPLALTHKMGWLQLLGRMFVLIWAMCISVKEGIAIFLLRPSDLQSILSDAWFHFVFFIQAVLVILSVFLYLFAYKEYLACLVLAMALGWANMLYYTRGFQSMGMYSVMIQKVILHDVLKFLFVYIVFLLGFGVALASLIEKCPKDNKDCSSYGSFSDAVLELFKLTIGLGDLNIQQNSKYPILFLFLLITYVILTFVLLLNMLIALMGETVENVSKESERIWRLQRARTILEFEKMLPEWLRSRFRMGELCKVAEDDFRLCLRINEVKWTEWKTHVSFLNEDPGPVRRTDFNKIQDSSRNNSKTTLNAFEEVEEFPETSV
Nature of the assay: Ca2+ signal in N2a cells transfected with human TRPV3 (camphor stimulation). Format: cell-based. The procedure:
Compounds were tested for their effect on TRPV1, TRPV2, and TRPV3. Methods were similar to those described in Example 15. Briefly, N2a cells were transfected with human TRPV1, TRPV2, or TRPV3. eGFP-transfection was used as control. For specific stimulation of TRPV1, 5 μM capsaicin was used. For stimulation of TRPV2, hypotonicity (260 mosmol/L) was used, based on previous reports of TRPV2 being osmotically responsive. N2a cells were not responsive to hypotonicity, and neither were control-transfected cells. For TRPV3-expressing cells, camphor (20% of a commercially available stock solution) was used. […] Stimulation and control protocols were applied as for TRPA1-expressing N2a cells as detailed above in Example 15.
For TRPV1, TRPV2, and TRPV3, Ca2+ transience was not affected by administration of 16-8 or 16-8/18hy.

Another assay deals with TRPV4 (Homo sapiens, UniProt Q9HBA0). The experiment in a line: TRPV4-mediated calcium influx in N2a cells with targeted expression of human TRPV4 (Ca2+ imaging, activation with 10 nM GSK101). Format: cell-based. Particulars: 2.5 μM inhibitor, pre-incubation 10 min. Also on record: expressed in transfected cells; host or cells: N2a cells. The procedure:
Compounds (GSK205, 16-12, 16-13, 16-14, 16-18, 16-8, and 16-8/18hy) were tested for their effect on TRPV4-mediated calcium influx in N2a cultured cells with targeted expression of human TRPV4. Ca2+ imaging was performed according to Li et al. (Environ. Health Perspect. 2011, 119, 784-93) and Moore et al. (Proc. Natl. Acad. Sci. U.S.A. 2013, 110, E3225-E3234). Briefly, Ca2+ imaging of primary mouse epidermal keratinocytes (1° MK) in response to chemical activation of TRPV4 was conducted after loading with 2 μM fura2-AM, following a ratiometric Ca2+-imaging protocol with 340/380 nm blue light for dual excitation. Ratios of emissions were acquired at 0.5 Hz. ΔR/R0 was determined as the fraction of the increase of a given ratio over baseline ratio, divided by baseline ratio. For stimulation of cells with UVB, where fura-2 was not suitable because of the proximity of stimulation with 340/380 nm vs. 295 nm, 2 μM fluo4-AM was used instead. Ca2+ imaging was carried out at 488 nm excitation, acquisition of emissions at 0.5 Hz, expressed as ΔF/F0. TRPV4 was activated with 10 nM GSK101, a specific activator, which had no effect on RFP-transfected cells. Each of the […] compounds were added to a concentration of 2.5 μM, and its effect was observed.
The ordinate is the peak calcium concentration in the cells (average n>75 cells) in nM.

Each structure is given as a SMILES string.

T1 sequence (O75762 whole entry): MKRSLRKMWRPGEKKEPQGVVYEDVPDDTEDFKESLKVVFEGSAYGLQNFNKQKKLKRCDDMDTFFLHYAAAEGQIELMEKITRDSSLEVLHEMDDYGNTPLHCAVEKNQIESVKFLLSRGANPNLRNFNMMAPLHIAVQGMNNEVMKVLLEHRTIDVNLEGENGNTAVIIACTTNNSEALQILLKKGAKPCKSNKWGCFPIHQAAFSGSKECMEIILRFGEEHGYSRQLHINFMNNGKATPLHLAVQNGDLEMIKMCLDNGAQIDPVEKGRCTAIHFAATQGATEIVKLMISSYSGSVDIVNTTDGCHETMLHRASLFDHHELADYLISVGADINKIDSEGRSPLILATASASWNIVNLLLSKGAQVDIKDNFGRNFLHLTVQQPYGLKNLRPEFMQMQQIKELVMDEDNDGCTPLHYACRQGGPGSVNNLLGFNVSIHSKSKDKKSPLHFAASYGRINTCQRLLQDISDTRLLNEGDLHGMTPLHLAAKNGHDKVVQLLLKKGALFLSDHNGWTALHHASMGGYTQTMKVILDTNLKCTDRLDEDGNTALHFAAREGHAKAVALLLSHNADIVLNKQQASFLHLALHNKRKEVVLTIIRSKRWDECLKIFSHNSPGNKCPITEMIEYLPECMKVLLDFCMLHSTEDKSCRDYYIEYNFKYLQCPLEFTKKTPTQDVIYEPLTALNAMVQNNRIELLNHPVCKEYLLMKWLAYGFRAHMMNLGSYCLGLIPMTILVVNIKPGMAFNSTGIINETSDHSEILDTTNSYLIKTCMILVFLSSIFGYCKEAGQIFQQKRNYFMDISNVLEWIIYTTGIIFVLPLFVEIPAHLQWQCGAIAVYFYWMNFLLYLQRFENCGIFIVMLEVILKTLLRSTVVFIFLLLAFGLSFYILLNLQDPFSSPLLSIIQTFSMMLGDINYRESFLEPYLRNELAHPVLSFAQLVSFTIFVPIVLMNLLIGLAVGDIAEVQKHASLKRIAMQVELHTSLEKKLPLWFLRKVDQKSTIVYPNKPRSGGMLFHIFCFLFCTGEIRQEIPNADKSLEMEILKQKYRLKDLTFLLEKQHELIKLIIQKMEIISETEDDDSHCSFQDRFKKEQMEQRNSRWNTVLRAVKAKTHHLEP
Sequence of TRPV4 (Q9HBA0 whole entry): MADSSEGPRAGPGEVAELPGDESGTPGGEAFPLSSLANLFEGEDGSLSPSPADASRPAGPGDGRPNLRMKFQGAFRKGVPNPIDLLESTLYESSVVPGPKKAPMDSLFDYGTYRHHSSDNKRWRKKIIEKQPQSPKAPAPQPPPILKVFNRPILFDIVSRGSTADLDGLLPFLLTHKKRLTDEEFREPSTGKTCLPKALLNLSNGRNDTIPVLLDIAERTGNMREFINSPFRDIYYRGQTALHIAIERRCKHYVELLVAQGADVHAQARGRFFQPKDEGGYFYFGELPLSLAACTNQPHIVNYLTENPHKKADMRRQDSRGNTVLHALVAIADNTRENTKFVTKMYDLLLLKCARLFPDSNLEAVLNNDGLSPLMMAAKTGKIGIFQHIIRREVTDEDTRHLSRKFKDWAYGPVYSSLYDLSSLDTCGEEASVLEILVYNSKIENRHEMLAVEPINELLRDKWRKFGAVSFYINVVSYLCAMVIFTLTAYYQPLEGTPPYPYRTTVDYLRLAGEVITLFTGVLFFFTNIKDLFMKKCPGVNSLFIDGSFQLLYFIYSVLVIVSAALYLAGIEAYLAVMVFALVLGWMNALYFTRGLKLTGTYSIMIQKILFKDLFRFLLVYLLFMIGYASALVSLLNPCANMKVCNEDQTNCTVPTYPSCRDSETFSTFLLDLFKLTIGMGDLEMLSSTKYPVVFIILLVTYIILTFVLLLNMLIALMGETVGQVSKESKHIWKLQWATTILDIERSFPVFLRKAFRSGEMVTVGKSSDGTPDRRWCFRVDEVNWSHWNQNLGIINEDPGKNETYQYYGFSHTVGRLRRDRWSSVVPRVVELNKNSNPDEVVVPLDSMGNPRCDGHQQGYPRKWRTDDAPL

As to `CN(CCc1ccc(Nc2nc(-c3ccccc3)cs2)cc1)Cc1ccccc1` [Compound 16-8], in the assay with BL6 mice, the “formalin-evoked nocifensive behavior at the 45-min time-point” value was “reduction to control levels”; the “formalin-evoked nocifensive behavior, time course” value is listed as “significantly attenuated nocifensive behavior”; the “formalin-evoked nocifensive behavior, quantitation (in particular second phase)” value is recorded as “significant attenuation of nocifensive behavior”. At human TRPA1, the “inhibitory activity against human TRPA1” value is “showed inhibitory activity”. Moreover, the “Ca2+ transience, TRPV3” value on human TRPV3 is listed as “not affected”. The “inhibition of TRPV4-mediated calcium influx (peak calcium concentration in the cells)” value on TRPV4 is given as “most potent”.

Consider `CCN(CCc1ccc(Nc2nc(-c3ccccc3)cs2)cc1)Cc1ccccc1` [16-8/18hy], for which, in the assay with BL6 mice, the “formalin-evoked nocifensive behavior at the 45-min time-point” value is given as “reversal to control levels”; the “formalin-evoked nocifensive behavior, time course” value was “significantly attenuated nocifensive behavior”; the “formalin-evoked nocifensive behavior, quantitation (in particular second phase)” value is given as “significant attenuation of nocifensive behavior”. Also, the “inhibitory activity against human TRPA1” value at human TRPA1 is recorded as “showed inhibitory activity”. At human TRPV3, the “Ca2+ transience, TRPV3” value was “not affected”. Also, the “inhibition of TRPV4-mediated calcium influx (peak calcium concentration in the cells)” value at TRPV4 is listed as “did not show enhanced inhibition over 16-8”.

Consider `CN(CCc1ccc(Nc2nc(-c3cccnc3)cs2)cc1)Cc1ccccc1` [GSK205], for which, in the assay on BL6 mice, the “formalin-evoked nocifensive behavior, time course” value was “not different from control” and the “formalin-evoked nocifensive behavior, quantitation (in particular second phase)” value was “lack of effect”. In addition, the “inhibition of TRPA1 activity” value on human TRPA1 (doses below or equaling 25 μM) is on record as “did not inhibit TRPA1 activity”. Moreover, the “inhibition of TRPV4-mediated calcium influx (peak calcium concentration in the cells)” value on TRPV4 was “very low potency”.
